From publication PMC7139804 (2020)

How the values were obtained:
[1] = test system: CPG-ds27 (DNA, hairpin) CGCGAATTCGCGTTTCGCGAATTCGCG; experiment: G4-CPG affinity chromatography; settings: 50 mM KCl; washing solution with 10% DMSO, 10% ethanol; oligonucleotide on CPG; errors within ± 2%
[2] = test system: CPG-tel26 (DNA, G4) TTAGGGTTAGGGTTAGGGTTAGGGTT; experiment: G4-CPG affinity chromatography; settings: 50 mM KCl; washing solution with 10% DMSO, 10% ethanol; oligonucleotide on CPG; errors within ± 2%
[3] = test system: CPG-cmyc (DNA, G4) TGGGGAGGGTGGGGAGGGTGGGGAAGGTGGGGA; experiment: G4-CPG affinity chromatography; settings: 50 mM KCl; washing solution with 10% DMSO, 10% ethanol; oligonucleotide on CPG; errors within ± 2%
[4] = test system: tel26 (DNA, G4) TTAGGGTTAGGGTTAGGGTTAGGGTT; experiment: CD melting at 290 nm; settings: 20 mM KCl, 5 mM KH2PO4; 10% DMSO, pH 7; 2 µM DNA, 12 µM compound (1:6)
[5] = test system: tel26 (DNA, G4) TTAGGGTTAGGGTTAGGGTTAGGGTT; experiment: fluorescence titration, independent equivalent-sites fit; settings: 20 mM KCl, 5 mM KH2PO4, 10% DMSO, pH 7, 20 °C, 2 µM ligand
[6] = test system: cmyc (DNA, G4) TGGGGAGGGTGGGGAGGGTGGGGAAGGTGGGGA; experiment: as above; settings: 20 mM KCl, 5 mM KH2PO4, 10% DMSO, pH 7, 20 °C, 2 µM ligand
[7] = test system: ds27 (DNA, hairpin) CGCGAATTCGCGTTTCGCGAATTCGCG; experiment: as above; settings: 20 mM KCl, 5 mM KH2PO4, 10% DMSO, pH 7, 20 °C, 2 µM ligand
[8] = test system: tel26 (DNA, G4) TTAGGGTTAGGGTTAGGGTTAGGGTT; experiment: fluorescence titration and Job plot; settings: 20 mM KCl, 5 mM KH2PO4; 10% DMSO, pH 7, 20 °C; 2 µM ligand, DNA up to 10 µM; no tight binding
[9] = test system: cmyc (DNA, G4) TGGGGAGGGTGGGGAGGGTGGGGAAGGTGGGGA; experiment: fluorescence titration and Job plot; settings: 20 mM KCl, 5 mM KH2PO4; 10% DMSO, pH 7, 20 °C; 2 µM ligand, DNA up to 10 µM; no tight binding
[10] = test system: ds27 (DNA, hairpin) CGCGAATTCGCGTTTCGCGAATTCGCG; experiment: fluorescence titration and Job plot; settings: 20 mM KCl, 5 mM KH2PO4; 10% DMSO, pH 7, 20 °C; 2 µM ligand, DNA up to 10 µM; no tight binding

Bound Ligand (%) [1]	Bound Ligand (%) [2]	Bound Ligand (%) [3]	SMILES	further results
29%	67%	64%	CN(C)CCCN1C(=O)c2cc(NCCOCCOCCNc3cc4c5c(ccc6c5c3C(=O)N(CCCCCC(=O)O)C6=O)C(=O)N(CCCCCC(=O)O)C4=O)c3c4c(cc(Br)c(c24)C1=O)C(=O)N(CCCN(C)C)C3=O	
71%	90%	87%	CN(C)CCCNc1cc2c3c(c(NCCOCCOCCNc4cc5c6c(ccc7c6c4C(=O)N(CCCCCC(=O)O)C7=O)C(=O)N(CCCCCC(=O)O)C5=O)cc4c3c1C(=O)N(CCCN(C)C)C4=O)C(=O)N(CCCN(C)C)C2=O	
38%	73%		CN(C)CCCN1C(=O)c2cc(NCCOCCOCCNc3cc4c5c(c(Br)cc6c5c3C(=O)N(CCCCCC(=O)O)C6=O)C(=O)N(CCCCCC(=O)O)C4=O)c3c4c(cc(Br)c(c24)C1=O)C(=O)N(CCCN(C)C)C3=O	
61%	77%		CN(C)CCCN1C(=O)c2ccc3c4c(c(NCCCCCCCNc5cc6c7c(ccc8c7c5C(=O)N(CCCCCC(=O)O)C8=O)C(=O)N(CCCCCC(=O)O)C6=O)cc(c24)C1=O)C(=O)N(CCCN(C)C)C3=O	
34%	85%	79%	CN(C)CCCN1C(=O)c2ccc3c4c(c(NCCOCCOCCNc5cc6c7c(ccc8c7c5C(=O)N(CCCCCC(=O)O)C8=O)C(=O)N(CCCCCC(=O)O)C6=O)cc(c24)C1=O)C(=O)N(CCCN(C)C)C3=O	
46%	92%		CCCNc1cc2c3c(c(NCCCN(C)C)cc4c3c1C(=O)N(CCCN(C)C)C4=O)C(=O)N(CCCN(C)C)C2=O	
71%	75%	79%	CN(C)CCCN1C(=O)c2cc(NCCCCCCCNc3cc4c5c(ccc6c5c3C(=O)N(CCCCCC(=O)O)C6=O)C(=O)N(CCCCCC(=O)O)C4=O)c3c4c(cc(Br)c(c24)C1=O)C(=O)N(CCCN(C)C)C3=O	
48%	100%	97%	CN(C)CCCN1C(=O)c2ccc3c4c(c(NCCCCCCCN)cc(c24)C1=O)C(=O)N(CCCN(C)C)C3=O	
30%	99%	99%	CN(C)CCCN1C(=O)c2ccc3c4c(c(NCCOCCO)cc(c24)C1=O)C(=O)N(CCCN(C)C)C3=O	ΔTm [4]: +15 °C; Kb [5]: 2.4 (±0.1) × 10^7 M^−1; Kb [6]: 2.6 (±0.2) × 10^7 M^−1; Kb [7]: 1.9 (±0.2) × 10^7 M^−1
33%	68%	79%	CN(C)CCCN1C(=O)c2ccc3c4c(c(NCCOCCOCCNc5cc6c7c(c(Br)cc8c7c5C(=O)N(CCCCCC(=O)O)C8=O)C(=O)N(CCCCCC(=O)O)C6=O)cc(c24)C1=O)C(=O)N(CCCN(C)C)C3=O	binding [8]: weak; binding [9]: weak; binding [10]: weak
41%	97%		CN(C)CCCN1C(=O)c2ccc3c4c(c(NCCOCCOCCN)cc(c24)C1=O)C(=O)N(CCCN(C)C)C3=O	
50%	85%	95%	CCCNc1cc2c3c(ccc4c3c1C(=O)N(CCCN(C)C)C4=O)C(=O)N(CCCN(C)C)C2=O	
